Experimental findings from article PMC4842925, “Aristolochic acid, a plant extract used in the treatment of pain and linked to Balkan endemic nephropathy, is a regulator of K2P channels” (British Journal of Pharmacology, 2016) are described below.

Common to all, as to experiment: whole-cell patch clamp, tsA201 cells
Holding throughout (type): cell-based

The target of assay [1] is T1, hTASK-2 (K2P5.1) (Homo sapiens, UniProt O95279).
T1 construct: gene KCNK5; full-length channel in pcDNA3.1, transiently expressed in tsA201 cells; functional dimer
T1 sequence (O95279 1-499): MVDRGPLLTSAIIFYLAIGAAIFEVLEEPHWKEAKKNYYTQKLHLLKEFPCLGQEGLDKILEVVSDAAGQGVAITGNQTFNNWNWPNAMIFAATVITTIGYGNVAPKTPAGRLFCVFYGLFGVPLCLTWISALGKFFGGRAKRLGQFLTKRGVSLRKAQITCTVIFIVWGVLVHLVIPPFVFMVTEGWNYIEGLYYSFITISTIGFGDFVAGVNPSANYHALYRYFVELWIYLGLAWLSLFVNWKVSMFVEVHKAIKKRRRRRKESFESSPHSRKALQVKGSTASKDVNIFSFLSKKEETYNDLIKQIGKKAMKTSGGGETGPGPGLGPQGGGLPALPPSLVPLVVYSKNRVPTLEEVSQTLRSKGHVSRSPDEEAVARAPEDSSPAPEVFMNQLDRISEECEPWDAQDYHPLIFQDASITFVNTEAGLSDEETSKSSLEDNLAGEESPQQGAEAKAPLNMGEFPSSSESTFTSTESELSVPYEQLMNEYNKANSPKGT
Particulars: activation; no effect at 100 μM; pH 7.4; 2.5 mM external K; room temperature.

In assay [2] the target is T2, hTRESK (K2P18.1) (Homo sapiens, UniProt Q7Z418, S252E/S264E).
T2 construct: gene KCNK18; full-length channel in pcDNA3.1, transiently expressed in tsA201 cells; homodimer
T2 sequence (Q7Z418 1-384 S252E/S264E): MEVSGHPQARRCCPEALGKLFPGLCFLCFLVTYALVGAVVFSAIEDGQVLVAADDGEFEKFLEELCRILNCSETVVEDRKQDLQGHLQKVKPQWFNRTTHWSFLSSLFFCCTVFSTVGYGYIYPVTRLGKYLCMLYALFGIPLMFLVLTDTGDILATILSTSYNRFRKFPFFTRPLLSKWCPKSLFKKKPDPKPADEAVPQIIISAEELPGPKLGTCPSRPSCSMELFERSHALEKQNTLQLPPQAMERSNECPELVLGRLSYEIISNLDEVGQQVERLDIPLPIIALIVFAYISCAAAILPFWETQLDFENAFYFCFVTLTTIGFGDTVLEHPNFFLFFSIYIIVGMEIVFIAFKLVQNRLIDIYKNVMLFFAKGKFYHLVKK

Assay [3] addresses T3, hTRESK (K2P18.1) (Homo sapiens, UniProt Q7Z418, F145A/F352A).
T3 construct: gene KCNK18; full-length channel in pcDNA3.1, transiently expressed in tsA201 cells; homodimer
T3 sequence (Q7Z418 1-384 F145A/F352A): T2 sequence (Q7Z418 1-384 S252E/S264E) with F145A, E252S, E264S, F352A

For assay [4], the target named is T4, hTRESK (K2P18.1) (Homo sapiens, UniProt Q7Z418, S252A/S264A).
T4 construct: gene KCNK18; full-length channel in pcDNA3.1, transiently expressed in tsA201 cells; homodimer
T4 sequence (Q7Z418 1-384 S252A/S264A): T2 sequence (Q7Z418 1-384 S252E/S264E) with E252A, E264A

For assay [5], the target named is T5, hTREK-2 (K2P10.1) (Homo sapiens, UniProt P57789).
T5 construct: gene KCNK10; full-length channel in pcDNA3.1, transiently expressed in tsA201 cells; homodimer
T5 sequence (P57789 1-538): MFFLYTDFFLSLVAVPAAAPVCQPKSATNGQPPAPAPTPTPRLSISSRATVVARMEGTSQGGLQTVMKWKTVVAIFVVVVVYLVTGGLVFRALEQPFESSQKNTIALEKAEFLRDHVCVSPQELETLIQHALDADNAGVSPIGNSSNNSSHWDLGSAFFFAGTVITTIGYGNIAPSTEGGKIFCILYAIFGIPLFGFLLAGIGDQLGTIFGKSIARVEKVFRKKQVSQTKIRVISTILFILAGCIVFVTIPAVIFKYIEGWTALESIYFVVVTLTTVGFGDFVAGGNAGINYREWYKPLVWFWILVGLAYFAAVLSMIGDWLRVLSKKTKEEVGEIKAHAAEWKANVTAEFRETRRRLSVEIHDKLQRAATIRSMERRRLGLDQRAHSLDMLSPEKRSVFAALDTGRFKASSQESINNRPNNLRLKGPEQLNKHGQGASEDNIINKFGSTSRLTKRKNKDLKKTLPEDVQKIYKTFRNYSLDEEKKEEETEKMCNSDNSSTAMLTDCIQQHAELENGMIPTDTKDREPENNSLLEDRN
Particulars: activation; difference current between -40 and -80 mV; pH 7.4; 2.5 mM external K; room temperature.

Assay [6] addresses T6, hTRESK (K2P18.1) (Homo sapiens, UniProt Q7Z418).
T6 construct: gene KCNK18; full-length channel in pcDNA3.1, transiently expressed in tsA201 cells; homodimer
T6 sequence (Q7Z418 1-384): T2 sequence (Q7Z418 1-384 S252E/S264E) with E252S, E264S

The target in assay [7] is T7, hTRAAK (K2P4.1) (Homo sapiens, UniProt Q9NYG8).
T7 construct: gene KCNK4; isoform 2 in pcDNA3.1, transiently expressed in tsA201 cells; homodimer
T7 sequence (Q9NYG8 1-419 isoform Q9NYG8-2): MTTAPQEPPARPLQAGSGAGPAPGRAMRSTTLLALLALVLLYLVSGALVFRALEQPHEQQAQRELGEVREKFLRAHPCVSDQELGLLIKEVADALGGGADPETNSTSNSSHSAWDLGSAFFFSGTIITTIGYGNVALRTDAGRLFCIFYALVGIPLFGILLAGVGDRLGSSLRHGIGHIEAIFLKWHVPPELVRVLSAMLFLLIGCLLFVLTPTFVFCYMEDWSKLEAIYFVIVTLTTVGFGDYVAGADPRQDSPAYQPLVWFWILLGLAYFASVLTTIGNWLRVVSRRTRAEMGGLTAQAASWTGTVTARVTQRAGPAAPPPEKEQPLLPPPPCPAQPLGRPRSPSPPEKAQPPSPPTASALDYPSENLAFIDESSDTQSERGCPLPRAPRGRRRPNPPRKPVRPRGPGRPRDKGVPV
Particulars: authors: little effect; difference current between -40 and -80 mV; pH 7.4; 2.5 mM external K; room temperature.

The target in assay [8] is T1, hTASK-2 (K2P5.1). Particulars: activation; pH 7.4; 2.5 mM external K; room temperature.
Assay [9] deals with T8, hTASK-2 (K2P5.1) (Homo sapiens, UniProt O95279, T108P).
T8 construct: gene KCNK5; full-length channel in pcDNA3.1, transiently expressed in tsA201 cells; functional dimer
T8 sequence (O95279 1-499 T108P): T1 sequence (O95279 1-499) with T108P

Positions count from the first letter of the chain named.

As to `COc1cccc2c1cc([N+](=O)[O-])c1c(C(=O)O)cc3c(c12)OCO3` [Aristolochic acid I], in assay [1], the “% enhancement at 300 μM” value stood at 21 ± 13%. Further, the results for the inhibition at 100 µM in assay [2], in assay [3] and in assay [4] were 73 ± 5%, 0% and 80 ± 2%, respectively. Further, the figures for the “% enhancement at 100 μM” value in assay [5] and in assay [7] were 44 ± 11% and 8 ± 5%, respectively. In [6], this compound returned a 50% inhibitory concentration (IC50) of 13 ± 2 µM.

Turning to `O=C(O)c1ccccc1Nc1cccc(C(F)(F)F)c1` [Flufenamic acid], the “% enhancement at 100 μM” value in assay [8] amounted to 80 ± 31%. This compound yielded an inhibition at 100 µM in assay [9] of 15 ± 14%.

Broadly, the inhibition is the share of the control response that was lost under treatment. Low values mean a weak effect, high ones a strong effect. For orientation: IC50 means the concentration needed to halve the response being measured. A high value points to weaker potency in that assay.
